Reference: patent US9695155B2, “Herbicidal substituted pyrimidinyloxy benzene compounds” (E. I. DU PONT DE NEMOURS AND COMPANY, priority 2013, dated 2017)

Tests used:
Assay in all cases: Test E postemergence
[1] = system: waterhemp_RES2 (ALS & HPPD resistant common waterhemp); type: in vivo, Amaranthus rudis; details: Amaranthus tuberculatus, post-emergence, read-out: Plant response rating, Waterhemp_RES2
Method in brief: (§1)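 Test chemicals formulated in a non-phytotoxic solvent mixture containing a surfactant were applied preemergence to seeds in silt loam soil or postemergence to plants at the 1- to 4-leaf stage in potting mix. After 14 to 21 days in a greenhouse, injury was visually rated against controls on a 0-100 scale (0 = no effect, 100 = complete control).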

[2] = system: waterhemp_RES1 (ALS & Triazine resistant common waterhemp); type: in vivo, Amaranthus rudis
Method in brief: as §1

waterhemp = type: in vivo, Amaranthus rudis; details: Amaranthus tuberculatus, post-emergence, read-out: Plant response rating, Waterhemp
Method in brief: as §1

hairy beggarticks = type: in vivo, Bidens pilosa; details: Bidens pilosa, post-emergence, read-out: Plant response rating, Beggarticks
Method in brief: as §1

arrowleaf sida = type: in vivo, Sida rhombifolia; details: Sida rhombifolia, post-emergence, read-out: Plant response rating, Arrowleaf Sida
Source text: Seeds of plant species selected from corn (Zea mays), soybean (Glycine max), velvetleaf (Abutilon theophrasti), lambsquarters (Chenopodium album), wild poinsettia (Euphorbia heterophylla), palmer pigweed (Amaranthus palmeri), waterhemp (common waterhemp, Amaranthus rudis), surinam grass (Brachiaria decumbens), large (Lg) crabgrass (Digitaria sanguinalis), Brazilian crabgrass (Digitaria horizontalis), fall panicum (Panicum dichotomiflorum), giant foxtail (Setaria faberii), green foxtail (Setaria viridis), goosegrass (Eleusine indica), johnsongrass (Sorghum halepense), ragweed (common ragweed, Ambrosia elatior), barnyardgrass (Echinochloa crus-galli), sandbur (southern sandbur, Cenchrus echinatus), arrowleaf sida (Sida rhombifolia), Italian ryegrass (Lolium multiflorum), dayflower (Virginia (VA) dayflower, Commelina virginica), field bindweed (Convolvulus arvensis), morningglory (Ipomoea coccinea), nightshade (eastern black nightshade, Solanum ptycanthum), kochia (Kochia scoparia), yellow nutsedge (Cyperus esculentus), cocklebur (common cocklebur, Xanthium strumarium), smartweed (ladysthumb smartweed, and hairy beggarticks (Bidens pilosa), were planted into a silt loam soil and treated preemergence with test chemicals formulated in a non-phytotoxic solvent mixture which included a surfactant.
At the same time, plants from these crop and weed species and also horseweed (Canada horseweed, Conyza canadensis), waterhemp_RES1, (ALS & Triazine resistant common waterhemp, Amaranthus rudis), and waterhemp_RES2, (ALS & HPPD resistant common waterhemp, Amaranthus rudis) were planted in pots containing Redi-Earth® planting medium (Scotts Company, 14111 Scottslawn Road, Marysville, Ohio 43041) comprising spaghnum peat moss, vermiculite, wetting agent and starter nutrients were treated with postemergence applications of test chemicals formulated in the same manner. Plants ranged in height from 2 to 18 cm for postemergence treatments (1- to 4-leaf stage). Treated plants and controls were maintained in a greenhouse for 14 to 21 days, after which time all species were compared to controls and visually evaluated. Plant response ratings, summarized in Table E, are based on a scale of 0 to 100 where 0 is no effect and 100 is complete control. A dash (-) response means no test result.

sandbur = type: in vivo, Cenchrus echinatus; details: Cenchrus echinatus, post-emergence, read-out: Plant response rating, Sandbur
Method in brief: as §1

[3] = Postemergence, 31 g ai/ha, scale 0 to 100
[4] = Postemergence, 62 g ai/ha, scale 0 to 100
[5] = Postemergence, 125 g ai/ha, scale 0 to 100
[6] = postemergence, 16 g ai/ha, scale 0 to 100, 0 no effect, 100 complete control
[7] = postemergence, 8 g ai/ha, scale 0 to 100, 0 no effect, 100 complete control

N#Cc1cccc(Oc2ncc(Cl)cn2)c1-n1cc(OCC(F)(F)F)cn1 [Compound 274, 3-[(5-chloro-2-pyrimidinyl)oxy]-2-[4-(2,2,2-trifluoroethoxy)-1H-pyrazol-1-yl]benzonitrile]
pest or weed control at 31 g/ha [1, 3]: 85% | pest or weed control at 62 g/ha [1, 4]: 95% | pest or weed control at 125 g/ha [1, 5]: 100% | pest or weed control at 16 g/ha [1, 6]: 80% | Plant response rating, Waterhemp_RES1 [2, 3]: 80 | Plant response rating, Waterhemp_RES1 [2, 4]: 90 | Plant response rating, Waterhemp_RES1 [2, 5]: 100 | Plant response rating, Waterhemp_RES1 [2, 7]: 60 | Plant response rating, Waterhemp_RES1 [2, 6]: 75 | pest or weed control at 31 g/ha (waterhemp; [3]): 90% | pest or weed control at 62 g/ha (waterhemp; [4]): 95% | pest or weed control at 125 g/ha (waterhemp; [5]): 98% | pest or weed control at 8 g/ha (waterhemp; [7]): 70% | pest or weed control at 16 g/ha (waterhemp; [6]): 95% | pest or weed control at 31 g/ha (hairy beggarticks; [3]): 60% | pest or weed control at 62 g/ha (hairy beggarticks; [4]): 70% | pest or weed control at 125 g/ha (hairy beggarticks; [5]): 95% | pest or weed control at 8 g/ha (hairy beggarticks; [7]): 30% | pest or weed control at 16 g/ha (hairy beggarticks; [6]): 50% | pest or weed control at 31 g/ha (arrowleaf sida; [3]): 60% | pest or weed control at 62 g/ha (arrowleaf sida; [4]): 75% | pest or weed control at 125 g/ha (arrowleaf sida; [5]): 85% | pest or weed control at 8 g/ha (arrowleaf sida; [7]): 55% | pest or weed control at 16 g/ha (arrowleaf sida; [6]): 75% | pest or weed control at 31 g/ha (sandbur; [3]): 10% | pest or weed control at 62 g/ha (sandbur; [4]): 15% | pest or weed control at 125 g/ha (sandbur; [5]): 0% | pest or weed control at 8 g/ha (sandbur; [7]): 0% | pest or weed control at 16 g/ha (sandbur; [6]): 0%
